≈ marks a conversion by molar mass, not a printed value.
Key:
[1] = Antimicrobial activity against Salmonella serovar Newport 129 by broth dilution method; format: functional, Salmonella enterica subsp. enterica serovar Newport; conditions: Salmonella enterica
[2] = Antimicrobial activity against Salmonella serovar Haifa 9878 by broth dilution method; format: functional, Salmonella enterica subsp. enterica serovar Haifa; conditions: Salmonella enterica
[3] = Antimicrobial activity against Salmonella serovar Mbandaka 7892 by broth dilution method; format: functional, Salmonella enterica subsp. enterica serovar Mbandaka; conditions: Salmonella enterica
[4] = Antimicrobial activity against Salmonella serovar Typhimurium SL1344 expressing ramA::aph-pTRC hisA:ramA mutant by broth dilution method in presence of chlorpromzine; format: functional; conditions: Salmonella enterica
[5] = Antimicrobial activity against Salmonella serovar Typhimurium SL1344 expressing ramA::aph-pTRC hisA:ramA mutant by broth dilution method; format: functional; conditions: Salmonella enterica
[6] = Antimicrobial activity against Salmonella serovar Typhimurium SL1344 expressing ramA::aph-pTRC hisA:ramA mutant by broth dilution method in presence of IPTG; format: functional; conditions: Salmonella enterica
[7] = Antimicrobial activity against Salmonella serovar Binza 8269 by broth dilution method; format: functional, Salmonella enterica subsp. enterica serovar Binza; conditions: Salmonella enterica
[8] = Antimicrobial activity against Salmonella serovar Typhimurium SL1344 expressing ramA::aph mutant by broth dilution method; format: functional; conditions: Salmonella enterica
[9] = Antimicrobial activity against Salmonella serovar Virchow 5742 by broth dilution method; format: functional, Salmonella enterica subsp. enterica serovar Virchow; conditions: Salmonella enterica
[10] = Antimicrobial activity against Salmonella serovar Typhimurium SL1344 by broth dilution method; format: functional; conditions: Salmonella enterica
[11] = Antimicrobial activity against Salmonella serovar Hadar by broth dilution method; format: functional, Salmonella enterica subsp. enterica serovar Hadar; conditions: Salmonella enterica
[12] = Antimicrobial activity against Salmonella serovar Montevideo 5747 by broth dilution method; format: functional, Salmonella enterica subsp. enterica serovar Montevideo; conditions: Salmonella enterica
Salmonella typhimurium [13] = assay: Antimicrobial activity against Salmonella serovar Typhimurium LT2 by broth dilution method; format: functional, Salmonella enterica subsp. enterica serovar Typhimurium; conditions: Salmonella enterica
Salmonella typhimurium [14] = assay: Antimicrobial activity against Salmonella serovar Typhimurium 14028S by broth dilution method; format: functional, Salmonella enterica subsp. enterica serovar Typhimurium; conditions: Salmonella enterica
[15] = Antimicrobial activity against Salmonella serovar Kedougou by broth dilution method; format: functional, Salmonella enterica subsp. enterica serovar Kedougou; conditions: Salmonella enterica
[16] = Antimicrobial activity against Salmonella serovar Heidelberg 5171 by broth dilution method; format: functional, Salmonella enterica subsp. enterica serovar Heidelberg; conditions: Salmonella enterica
[17] = Antimicrobial activity against Salmonella serovar Typhimurium SL1344 by broth dilution method in presence of chlorpromazine; format: functional; conditions: Salmonella enterica
Salmonella enteritidis = assay: Antimicrobial activity against Salmonella serovar Enteritidis 5188 by broth dilution method; format: functional, Salmonella enterica subsp. enterica serovar Enteritidis; conditions: Salmonella enterica
[18] = Antimicrobial activity against Salmonella serovar Typhimurium SL1344 assessed as ramA expression at 200 ug/ml; format: functional
[19] = Antimicrobial activity against Salmonella serovar Typhimurium SL1344 expressing acrB::aph mutant assessed as ramA expression at 200 ug/ml; format: functional
[20] = Antimicrobial activity against Salmonella serovar Typhimurium SL1344 assessed as acrB expression at 200 ug/ml; format: functional
[21] = Antimicrobial activity against Salmonella serovar Typhimurium SL1344 expressing soxS::aph mutant by broth dilution method; format: functional; conditions: Salmonella enterica
[22] = Antimicrobial activity against Salmonella serovar Typhimurium SL1344 expressing acrB::aph mutant by broth dilution method; format: functional; conditions: Salmonella enterica
[23] = Antimicrobial activity against Salmonella serovar Typhimurium SL1344 expressing tolC::aph mutant by broth dilution method; format: functional; conditions: Salmonella enterica
[24] = Antimicrobial activity against Salmonella serovar Typhimurium SL1344 expressing marA::aph mutant by broth dilution method; format: functional; conditions: Salmonella enterica
[25] = Antimicrobial activity against Salmonella serovar Typhimurium SL1344 expressing acrD::aph mutant by broth dilution method; format: functional; conditions: Salmonella enterica
[26] = Antimicrobial activity against Salmonella serovar Typhimurium SL1344 expressing acrF::aph mutant by broth dilution method; format: functional; conditions: Salmonella enterica
[27] = Antimicrobial activity against Salmonella serovar Typhimurium SL1344 expressing ramA::aph mutant assessed as acrB expression at 200 ug/ml; format: functional

SMILES | MIC [4] [µg/mL] | MIC [5] [µg/mL] | MIC [6] [µg/mL] | MIC [8] [µg/mL] | MIC [10] [µg/mL] | MIC [17] [µg/mL] | MIC [21] [µg/mL] | MIC [22] [µg/mL] | MIC [23] [µg/mL] | MIC [24] [µg/mL] | MIC [25] [µg/mL] | MIC [26] [µg/mL] | further results
CC[n+]1c(-c2ccccc2)c2cc(N)ccc2c2ccc(N)cc21.[Br-] [HOMIDIUM BROMIDE] | 512 | 2050 | 2050 | 1020 | 1020 | 8 | – | – | – | – | – | – | MIC [1]: 1020 µg/mL; MIC [2]: 1020 µg/mL; MIC [3]: 1020 µg/mL; MIC [7]: 1020 µg/mL; MIC [9]: 1020 µg/mL; MIC [11]: 1020 µg/mL; MIC [12]: 1020 µg/mL; MIC (Salmonella typhimurium [13]): 1020 µg/mL; MIC (Salmonella typhimurium [14]): 2050 µg/mL; MIC [15]: 512 µg/mL; MIC [16]: 512 µg/mL; MIC (Salmonella enteritidis): 1020 µg/mL
Oc1cc(Cl)ccc1Oc1ccc(Cl)cc1Cl [TRICLOSAN] | 0.25 | 0.25 (≈ 0.863 µM) | 1 | 0.12 (≈ 0.414 µM) | 0.12 (≈ 0.414 µM) | – | – | – | – | – | – | – | –
CN(C)c1ccc(C(=C2C=CC(=[N+](C)C)C=C2)c2ccc(N(C)C)cc2)cc1.[Cl-] [GENTIAN VIOLET] | 0.5 | 2 | 2 | 2 | 2 | 1 | – | – | – | – | – | – | –
CO[C@@H]1[C@@H](OC(N)=O)[C@@H](O)[C@H](Oc2ccc3c(O)c(NC(=O)c4ccc(O)c(CC=C(C)C)c4)c(=O)oc3c2C)OC1(C)C [NOVOBIOCIN] | 512 | 512 (≈ 836 µM) | 1020 | 256 (≈ 418 µM) | 512 (≈ 836 µM) | 64 | – | – | – | – | – | – | –
CCn1cc(C(=O)O)c(=O)c2cc(F)c(N3CCNCC3)cc21 [NORFLOXACIN] | 0.25 | 0.25 (≈ 0.783 µM) | 0.25 | 0.25 (≈ 0.783 µM) | 0.06 (≈ 0.188 µM) | 0.008 | – | – | – | – | – | – | MIC [1]: 0.06 µg/mL (≈ 0.188 µM); MIC [2]: 0.06 µg/mL (≈ 0.188 µM); MIC [3]: 0.06 µg/mL (≈ 0.188 µM); MIC [7]: 0.06 µg/mL (≈ 0.188 µM); MIC [9]: 0.06 µg/mL (≈ 0.188 µM); MIC [11]: 0.06 µg/mL (≈ 0.188 µM); MIC [12]: 0.06 µg/mL (≈ 0.188 µM); MIC (Salmonella typhimurium [13]): 0.06 µg/mL (≈ 0.188 µM); MIC (Salmonella typhimurium [14]): 0.06 µg/mL (≈ 0.188 µM); MIC [15]: 0.06 µg/mL (≈ 0.188 µM); MIC [16]: 0.06 µg/mL (≈ 0.188 µM); MIC (Salmonella enteritidis): 0.06 µg/mL (≈ 0.188 µM)
CN(C)CCCN1c2ccccc2Sc2ccc(Cl)cc21 [CHLORPROMAZINE] | – | 512 (≈ 1610 µM) | 512 | 256 (≈ 803 µM) | 512 (≈ 1610 µM) | – | 256 (≈ 803 µM) | 32 (≈ 100 µM) | 32 (≈ 100 µM) | 256 (≈ 803 µM) | 128 (≈ 401 µM) | 128 (≈ 401 µM) | fold change (FC) [18]: 0.4; fold change (FC) [19]: 0.7; fold change (FC) [20]: 2.6; fold change (FC) [27]: 1.6
CN1CCN(CCCN2c3ccccc3Sc3ccc(C(F)(F)F)cc32)CC1 [TRIFLUOPERAZINE] | – | – | – | 1020 (≈ 2510 µM) | 1020 (≈ 2510 µM) | – | 1020 (≈ 2510 µM) | 64 (≈ 157 µM) | 32 (≈ 78.5 µM) | 1020 (≈ 2510 µM) | 1020 (≈ 2510 µM) | 1020 (≈ 2510 µM) | –
O=C(O)c1cn(C2CC2)c2cc(N3CCNCC3)c(F)cc2c1=O [CIPROFLOXACIN] | 0.015 | 0.03 (≈ 0.0905 µM) | 0.03 | 0.03 (≈ 0.0905 µM) | 0.03 (≈ 0.0905 µM) | 0.008 | – | – | – | – | – | – | –
CN(C)CCC=C1c2ccccc2CCc2ccccc21 [AMITRIPTYLINE] | – | – | – | 512 (≈ 1850 µM) | 512 (≈ 1850 µM) | – | 512 (≈ 1850 µM) | 256 (≈ 923 µM) | 256 (≈ 923 µM) | 512 (≈ 1850 µM) | 1020 (≈ 3690 µM) | 512 (≈ 1850 µM) | –
CN(C)c1ccc2cc3ccc(N(C)C)cc3nc2c1 [ACRIDINE ORANGE] | 512 | 256 (≈ 965 µM) | 512 | 256 (≈ 965 µM) | 512 (≈ 1930 µM) | 512 | – | – | – | – | – | – | –
CSc1ccc2c(c1)N(CCC1CCCCN1C)c1ccccc1S2 (stereo not drawn) [THIORIDAZINE] | – | – | – | 1020 (≈ 2760 µM) | 1020 (≈ 2760 µM) | – | 1020 (≈ 2760 µM) | 32 (≈ 86.3 µM) | 32 (≈ 86.3 µM) | 1020 (≈ 2760 µM) | 1020 (≈ 2760 µM) | 1020 (≈ 2760 µM) | –
Cc1ccccc1C(OCCN(C)C)c1ccccc1 (stereo not drawn) [ORPHENADRINE] | – | – | – | 1020 (≈ 3800 µM) | 1020 (≈ 3800 µM) | – | 1020 (≈ 3800 µM) | 1020 (≈ 3800 µM) | 1020 (≈ 3800 µM) | 1020 (≈ 3800 µM) | 1020 (≈ 3800 µM) | 1020 (≈ 3800 µM) | –
CCn1cc(C(=O)O)c(=O)c2ccc(C)nc21 [NALIDIXIC ACID] | 16 | 16 (≈ 68.9 µM) | 64 | 4 (≈ 17.2 µM) | 4 (≈ 17.2 µM) | – | – | – | – | – | – | – | –
O=C(N[C@H](CO)[C@H](O)c1ccc([N+](=O)[O-])cc1)C(Cl)Cl [CHLORAMPHENICOL] | 16 | 8 (≈ 24.8 µM) | 32 | 4 (≈ 12.4 µM) | 4 (≈ 12.4 µM) | 0.015 | – | – | – | – | – | – | –
CN(C)[C@@H]1C(O)=C(C(N)=O)C(=O)[C@@]2(O)C(O)=C3C(=O)c4c(O)cccc4[C@@](C)(O)[C@H]3C[C@@H]12 [TETRACYCLINE] | 8 | 4 (≈ 9 µM) | 16 | 2 (≈ 4.5 µM) | 2 (≈ 4.5 µM) | 0.25 | – | – | – | – | – | – | –

Source: ChEMBL document CHEMBL1275528, “RamA confers multidrug resistance in Salmonella enterica via increased expression of acrB, which is inhibited by chlorpromazine” (2008)
